From US11472832B2, “Withanolides useful for the treatment of neurodegenerative diseases” (priority 2013, dated 2022)
Where two headings read alike, the source gives them in different places.

What was measured:
NF-κB [1] = experiment: NF-κB luciferase reporter activity in BV2 microglial cells stimulated with LPS; assay type: cell-based; settings: BV-2 cells, LPS 100 ng/ml, 4 h
Method: An NF-κB specific luciferase reporter system in BV-2 microglial cells was first established. This cell line was generated by stable transfection of BV-2 cells with stable insertion of a luciferase reporter 4 kBwt luciferase plasmid and subsequent selection with hygomycin. LPS was used to stimulate NF-κB activity in these cells. Twenty-five thousand hygromycin B-resistant BV-2 cells were seeded per well in 24-well dishes and allowed to adhere overnight. The next morning, the culture medium (DMEM+10% FBS) was removed and 1 ml of fresh medium (DMEM without FBS) added to each well. The stock solutions of withanolides (2 mg/ml in DMSO) were diluted in 1×PBS to various concentration (0.05 to 5 uM) and added to the wells. LPS was added one hour later at a final concentration of 100 ng/ml. Four hours later, the BV-2 cells were rinsed with 1×PBS prior to proceeding with the luciferase assay that was performed according to the manufacturer's instructions (Bright-Glo™ luciferase assay system, Promega, Wis.).

NF-κB [2] = experiment: TNF-α-induced signalling activity in HEK293-NF-κB-luciferase reporter cell line; assay type: cell-based; settings: HEK-293 cells; for IC50: TNF-alpha 40 ng/ml, 4 h, luciferase; for inhibition of NF-κB expression: TNF-alpha, 0.05 to 5 uM, FIG. 3
Method: Ten thousand hygromycin B-resistant HEK-293 cells were seeded per well in a 96-well plate (Corning, New-York) and allowed to adhere overnight. The next morning, the culture medium (DMEM+10% FBS) was removed and […] of fresh medium (DMEM without FBS) added to each well. […] Human recombinant TNF-alpha (R&D Systems, Minneapolis) was added one hour later at a final concentration of 40 ng/ml. Four hours later, the HEK-293 cells were rinsed with 1×PBS prior to the luciferase assay, which was performed according to the manufacturer's instructions (Bright-Glo™ luciferase assay system, Promega, Wis.).

[3] = system: TDP-43 A315T transgenic mice; settings: 5 mg/kg i.p. every 2 days for 15 weeks
Method: The TDP-43 A315T mouse model for ALS is fully described in Swamp, V et al., Brain 134: 2610-2626 2011.
Male and female TDP-43 A315T mice of approximately 9 months and 25-55 gm were included in the study, and were randomly assigned to three groups, as follows:
Group 2 (n=7) (the control group) received vehicle (2% polysorbate [Tween-80]/5% DMSO/93% saline); and
The injection volume at 12.5 mL/kg was based on the body weight of each individual animal at the start of the study.
Accelerating rotarod (as described in Gros-Louis, F., et al. Hum Mol Genet 17, 2691-2702 (2008)) was performed prior to first dosing and at weekly interval during the study. Testing was performed at 4-rpm speed with 0.25 rpm/s acceleration. Each mouse was subjected to three trials per session. The number of seconds each mouse remained on the rotarod apparatus for each trial was recorded.

[4] = system: LPS-induced astrogliosis (GFAP promoter luciferase reporter); settings: GFAP-luc mice, LPS inhaled, 4 mg/kg i.p. 2 h after LPS and 2 h before imaging, imaging 24 h after LPS
Method: In vivo bioluminescence imaging was performed to asses the inflammatory response in the cranial region.
GFAP-luc transgenic mice were used to test in vivo the efficacy of these analogs. In these transgenic mice, the firefly luciferase reporter gene is under the control of a 12 kb DNA fragment of the glial fibrillary acidic protein (GFAP) promoter (Caliper Life Sciences). The luciferase reporter is inducible following LPS administration resulting in GFAP transcriptional regulation. If the administration of test compounds following the injection of LPS decreases LPS-induced astrogliosis in GFAP-luc mice, this is visualized as a reduced bioluminescent signal upon imaging.
Transgenic mice under anesthesia were induced to inhale either 5 ul of a solution of LPS (1 mg/ml in 0.9% saline) or a solution of 0.9% saline alone followed 2 h later by an intraperitoneal (i.p.) injection of 0.5 ml of the test compounds (10% dilution in 0.9% saline) at a final concentration of 4 mg/kg. The following day, 2 h before imaging (24 h after the administration of the LPS solution), the transgenic mice were again injected with the withanolides as previously. Twenty minutes prior to imaging, the mice received an i.p. injection of the luciferase substrate D-luciferin (150 mg/kg). D-luciferin was dissolved in 0.9% saline to a final concentration of 20 mg/ml. […]

C57BL/6 female mice = settings: i.p.; for clinical observations post-dosing: 65 mg/kg; for safety profile compared with WA: 20 to 65 mg/kg

Compound	IC50 (NF-κB [1]) [µM]	IC50 (NF-κB [2]) [µM]	inhibition of NF-κB expression (NF-κB [2])	rotarod performance over the 15 week period [3]	bioluminescent signal in brain (astrogliosis) compared to saline-DMSO [4]	mortality (C57BL/6 female mice; 55 mg/kg)	clinical observations post-dosing (C57BL/6 female mice)	mortality (C57BL/6 female mice; 65 mg/kg (highest dose tested))	safety profile compared with WA (C57BL/6 female mice)	IC50 (NF-κB [1]; Mus musculus) [µM]	IC50 (NF-κB [2]; Homo sapiens, HEK293) [µM]
COCC1=C(C)C[C@H]([C@@H](C)[C@H]2CC[C@H]3[C@@H]4C[C@H]5O[C@]56[C@@H](OC)C=CC(=O)[C@]6(C)[C@H]4CC[C@]23C)OC1=O [4,27-O-dimethyl WA, 4,27-O-dimethylwithaferin A]	0.8	0.45	inhibited NF-κB expression								
CO[C@H]1C=CC(=O)[C@]2(C)[C@H]3CC[C@]4(C)[C@@H]([C@H](C)[C@H]5CC(C)=C(CO)C(=O)O5)CC[C@H]4[C@@H]3C[C@H]3O[C@]132 [4-O-methyl WA, 4-O-methylwithaferin A]	0.97	0.32	inhibited NF-κB expression	improved	significant decrease	no mortality	some weakness and a decrease in activity	no mortality	much better safety profile than WA		
COCC1=C(C)C[C@H]([C@@H](C)[C@H]2CC[C@H]3[C@@H]4C[C@H]5O[C@]56[C@@H](O)C=CC(=O)[C@]6(C)[C@H]4CC[C@]23C)OC1=O [27-O-methyl WA, 27-O-methylwithaferin A]	0.71	0.26	inhibited NF-κB expression	improved	significant decrease	no mortality	some weakness and a decrease in activity	no mortality	much better safety profile than WA		
CC1=C(CO)C(=O)O[C@@H]([C@@H](C)[C@H]2CC[C@H]3[C@@H]4C[C@H]5O[C@]56[C@@H](O)C=CC(=O)[C@]6(C)[C@H]4CC[C@]23C)C1 [WA, Withaferin A, reference compound]										0.5	0.34
